Measurements published in patent US20240239759A1, “ISOXAZOLINE COMPOSITIONS AND THEIR USE AS ANTIPARASITICS” (Intervet Inc., priority 2007, published 2024).

Experiments:
[1] = Side effects in mice, mite study (Example 2B); assay type: in vivo; settings: topical 100 ppm, oral or subcutaneous 10 mg/kg, twice 7 days apart
Experimental: The mice were divided into groups of three, and treated topically with 100 ppm body weight, orally with 10 mg/kg body weight, or subcutaneously with 10 mg/kg body weight of Compound 11-1, fipronil (positive control), or nothing (negative control). This treatment was then repeated 7 days later. The infestation rate per mouse (“+”=low infestation rate, “++”=medium infestation rate, “+++”=high infestation rate) was assessed repeatedly on days 1, 6, 9, 13, and 23. Efficacy was defined as the inhibition of the mite infestation rate on treated mice relative to the negative control group.

cat fleas (C. felis) = assay: Efficacy against cat fleas on dogs (Example 5); assay type: in vivo, Ctenocephalides felis; settings: beagles, Day 2 (approx. 48 hr after treatment)
Experimental: (§1) On Day Zero, one group of 4 beagles was treated orally with gelatin capsules containing 20 mg/kg body weight of […]. Another group of 4 beagles was treated topically by washing with 2 L of solution containing 200 ppm body weight of […] dissolved in DMF-premix/tap water (1:100, based on volume). Finally, a group of 3 beagles remained untreated as the negative control. Two days before treatment on Day Zero, all the beagles were each infested with approximately 80 unfed adult fleas (C. felis) and approximately 60 unfed adult ticks (R. sanguineus). The parasite burden of each beagle was assessed on Day 2 (approximately 48 hr after the treatment) by removing and counting the fleas and ticks. Fleas and ticks were classified according to vitality (fleas: dead or alive; ticks: dead or alive, and engorged or not engorged). The efficacy was calculated from the mean number of vital fleas and ticks in the treated group (Mt) relative to the mean number of vital fleas and ticks in the untreated control group (Mc) using following formula: […]

[2] = Side effects in dogs (Example 5); assay type: in vivo; settings: beagles; oral 20 mg/kg or topical 200 ppm
Experimental: as §1

Cc1cc(C2=NOC(c3cc(Cl)cc(Cl)c3)(C(F)(F)F)C2)ccc1C(=O)NCC(=O)NCC(F)(F)F (racemic) [Compound 11-1, 4-[5-(3,5-dichlorophenyl)-5-trifluoromethyl-4,5-dihydroisoxazol-3-yl]-2-methyl-N-[(2,2,2-trifluoro-ethylcarbamoyl)-methyl]-benzamide]
Side effects [1]: No side effects were observed
Flea efficacy (cat fleas (C. felis); oral gelatin capsules 20 mg/kg): 100%
Flea efficacy (cat fleas (C. felis); topical washing with 2 L of 200 ppm solution): 100%
Side effects [2]: No side effects were observed
